3 compounds from article PMC11619365, “Histone deacetylase 2 and 3 of Sarcoptes scabiei: characterization of a potential drug target” (Microbiology Spectrum, 2024) can be followed below.

What all share (assay type): biochemical
The target in one assay is T1, rSsHDAC-2 (Sarcoptes scabiei, UniProt A0A834RGW6).
T1 sequence (A0A834RGW6 1-304): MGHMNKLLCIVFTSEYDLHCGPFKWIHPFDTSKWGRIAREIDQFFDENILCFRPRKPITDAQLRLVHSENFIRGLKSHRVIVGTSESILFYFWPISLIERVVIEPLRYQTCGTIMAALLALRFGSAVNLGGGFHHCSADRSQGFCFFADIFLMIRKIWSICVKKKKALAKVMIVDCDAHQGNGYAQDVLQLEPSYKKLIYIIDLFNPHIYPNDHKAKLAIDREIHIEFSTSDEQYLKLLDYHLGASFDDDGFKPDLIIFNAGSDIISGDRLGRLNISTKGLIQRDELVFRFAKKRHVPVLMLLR
The assay is described as follows: fluorogenic trypsin-coupled deacetylase assay. The settings on record: Boc-Lys(ε-Ac)-AMC substrate buffer 100 µM (25 of 50 µL), HEPES pH 8.0, 1 mM MgCl2, 37 °C, 2 h; inhibitor concentration as printed, but 1 µL of it added to 50 µL, so final concentration unclear.

The target in assay [1] is T2, rSsHDAC-3 (Sarcoptes scabiei, UniProt A0A834REN1).
T2 construct: ORF 411 residues (1,236 bp; amplified fragment printed as around 1,000 bp), pET32a(+) N-terminal Trx/His tag kept (about 18 kDa), 63 kDa on SDS-PAGE, E. coli BL21(DE3), soluble, Ni-NTA; no co-repressor partner
T2 sequence (A0A834REN1 1-411): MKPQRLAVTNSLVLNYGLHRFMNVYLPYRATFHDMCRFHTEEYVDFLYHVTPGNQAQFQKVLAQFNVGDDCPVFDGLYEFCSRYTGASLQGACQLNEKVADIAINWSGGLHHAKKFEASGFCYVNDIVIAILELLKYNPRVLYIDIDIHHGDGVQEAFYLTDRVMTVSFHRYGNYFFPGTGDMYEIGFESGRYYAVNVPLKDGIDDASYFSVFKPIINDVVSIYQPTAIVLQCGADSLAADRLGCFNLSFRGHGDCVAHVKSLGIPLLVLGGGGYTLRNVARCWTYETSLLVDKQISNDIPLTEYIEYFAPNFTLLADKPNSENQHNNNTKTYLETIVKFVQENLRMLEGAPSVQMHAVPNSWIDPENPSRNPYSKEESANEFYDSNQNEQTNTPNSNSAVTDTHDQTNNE
The assay is described as follows: fluorogenic trypsin-coupled deacetylase assay.

Assay [2] addresses T2, rSsHDAC-3. In words: fluorogenic trypsin-coupled deacetylase assay (excitation […] nm, emission […] nm). The settings on record: HEPES pH 8.0, 1 mM MgCl2, 37 °C, 2 h.

With `COc1ccccc1NC(=O)NCc1ccc(C(=O)NO)cc1` [Elevenostat], the % inhibition – broadly, the change of the read-out against control, counted positive when it falls – at 10 μM on rSsHDAC-2 is recorded as 81.2%. With `Nc1cc(F)ccc1NC(=O)/C=C/c1cnn(C/C=C/c2ccccc2)c1` [RGFP966], at rSsHDAC-3 [1], the inhibition – broadly, the change of the read-out against control, counted positive when it falls – at 10 µM came to 68.9%. As to `CC(=O)NCCCC[C@H](NC(=O)OC(C)(C)C)C(=O)Nc1ccc2c(C)cc(=O)oc2c1` [Boc-Lys(ε-Ac)-AMC], at rSsHDAC-3 [2], the “fluorogenic trypsin-coupled deacetylase assay (excitation 355 nm, emission 460 n)” value is on record as “whereas the intensity in the rSsHDAC-3 group increased significantly”.
